Data taken from article PMC6789487, “Iminosugars: Effects of Stereochemistry, Ring Size, and N-Substituents on Glucosidase Activities” (Pharmaceuticals, 2019).
“And” between values parts separate entries of the source, which are not always exact repeats. Equal entries are not always repeated. Where two headings read alike, the source gives them in different places.

Assays:
[1] = biological target: T1, α-glucosidase (from Saccharomyces cerevisiae) (Saccharomyces cerevisiae, UniProt P53341); assay: Yeast α-glucosidase inhibition, p-nitrophenyl α-D-glucopyranoside substrate, 96-well plate; assay type: biochemical
T1 sequence (P53341 whole entry): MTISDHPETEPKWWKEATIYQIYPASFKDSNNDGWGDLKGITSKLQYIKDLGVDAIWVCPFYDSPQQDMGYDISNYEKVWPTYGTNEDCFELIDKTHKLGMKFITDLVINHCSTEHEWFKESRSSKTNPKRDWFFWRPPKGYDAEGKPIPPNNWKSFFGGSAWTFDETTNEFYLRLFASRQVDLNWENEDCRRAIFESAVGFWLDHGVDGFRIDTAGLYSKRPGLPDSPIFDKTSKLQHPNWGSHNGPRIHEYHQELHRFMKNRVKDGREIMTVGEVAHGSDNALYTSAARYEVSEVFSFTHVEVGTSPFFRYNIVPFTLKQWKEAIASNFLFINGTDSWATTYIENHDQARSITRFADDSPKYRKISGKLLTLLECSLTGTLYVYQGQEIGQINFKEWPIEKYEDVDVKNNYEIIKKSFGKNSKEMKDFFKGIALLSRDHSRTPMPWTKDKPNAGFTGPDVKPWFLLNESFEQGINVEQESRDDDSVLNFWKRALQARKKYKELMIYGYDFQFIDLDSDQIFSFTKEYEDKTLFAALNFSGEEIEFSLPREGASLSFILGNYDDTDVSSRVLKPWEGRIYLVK
Description: (§1) Biological assays: Yeast α-glucosidase (EC 3.2.1.20) and almond β-glucosidase (EC 3.2.1.21) activity was assessed using a 96-well plate assay. Assays contained 20 mM NaOAc at pH 6.8 (α-glucosidase) and pH 6.2 (β-glucosidase), 10 mM PIPES (piperazine-N,N′-bis(2-ethanesulfonic acid), 0.1 mM EDTA, α-glucosidase (5 μg/mL), β-glucosidase (6 μg/mL), and inhibitor (0.1–2 mM). Enzyme and inhibitor were equilibrated at 37 °C for 30 min. The reaction was initiated by the addition of p-nitrophenyl α-D-glucopyranoside (200 μM) or p-nitrophenyl β-D-glucopyranoside (200 μM), and then it was quenched with 100 μL of sodium carbonate 3.0 M after 25 min incubation at 37 °C. Assays were repeated in duplicate and data averaged.

[2] = biological target: almond β-glucosidase (EC 3.2.1.21); assay: Almond β-glucosidase inhibition, p-nitrophenyl β-D-glucopyranoside substrate, 96-well plate; assay type: biochemical; conditions: β-Glucosidase from almonds; NI: no inhibition
Description: To broaden the scope of the analysis, β-glucosidase (almond) activity of the same set of compounds was conducted using the corresponding p-nitrophenyl β-D-glucopyranoside.
as §1

β-glucosidase = conditions: cited from earlier work; for % β-glucosidase inhibition: at 1 mM
[3] = system: Bacillus stearothermophilus α-glucosidase; design: method as in PMID 9113331; conditions: cited from earlier work; for % α-glucosidase inhibition: tested at 1 mM in Bacillus stearothermophilus
[4] = biological target: T1, α-glucosidase (from Saccharomyces cerevisiae); assay: Yeast α-glucosidase inhibition, p-nitrophenyl α-D-glucopyranoside substrate, 96-well plate; assay type: biochemical; conditions: tested concentration 15–2000 µM
yeast α-glucosidase = conditions: at 1 mM; cited from earlier work
[5] = NI: no inhibition, read-out: Inhibition (µM) α-Glucosidase (IC50)
[6] = read-out: Inhibition (µM) α-Glucosidase (IC50), NI: no inhibition

Row | IC50 [1, 5] | IC50 [2] | Compound | also measured
1 | 138 µM and 139 µM | 4 ± 1.4 µM | OCCN1C[C@H](O)[C@@H](O)[C@H](O)[C@@H](O)C1 [41b, N-Hydroxyethyl-1,6-dideoxy-1,6-imino-L-iditol] | –
2 | > 2000 µM | > 2000 µM | C#CCN1C[C@@H](O)[C@@H](O)[C@H](O)[C@H](O)C1 [26b, N-Propynyl-1,6-dideoxy-1,6-imino-D-mannitol] | –
3 | > 2000 µM | > 2000 µM | OCCN1C[C@@H](O)[C@@H](O)[C@H](O)[C@H](O)C1 [28b, N-Hydroxyethyl-1,6-imino-D-mannitol] | –
4 | > 2000 µM | > 2000 µM | OC[C@H]1[C@@H](O)[C@H](O)[C@H](O)CN1CCc1ccccc1 [29a, N-Phenethyl-1,5-dideoxy-1,5-imino-L-gulitol] | –
5 | – | – | O[C@H]1[C@H](O)[C@H](O)CNC[C@H]1O [D-manno-azepane, 1,6-dideoxy-1,6-imino-D-mannitol] | % β-glucosidase inhibition (β-glucosidase): 1%; % α-glucosidase inhibition [3]: 55%
6 | – | 184 µM and 185 µM | CCCCN1C[C@@H](O)[C@@H](O)[C@H](O)[C@H](O)C1 [27b, N-Butyl-1,6-dideoxy-1,6-imino-D-mannitol] | –
7 | – | – | CCCCN1C[C@@H](O)[C@@H](O)[C@H](O)[C@@H]1CO [27a, N-Butyl-1,5-dideoxy-1,5-imino-L-gulitol] | IC50 [1, 6]: > 2000 µM
8 | – | 4 ± 1.5 µM | OCCN1C[C@H](O)[C@@H](O)[C@H](O)[C@H]1CO [41a, N-Hydroxyethyl-1,5-dideoxy-1,5-imino-D-glucitol, reference compound] | IC50 ([1]; Inhibition (µM) α-Glucosidase (IC50), NI: no inhibition): 41 µM and 41.3 µM
9 | > 2000 µM | 1716 ± 12.8 µM | C#CCN1C[C@@H](O)[C@@H](O)[C@H](O)[C@@H]1CO [26a, N-Propynyl-1,5-dideoxy-1,5-imino-L-gulitol] | –
10 | – | – | CCCCN1C[C@H](O)[C@@H](O)[C@H](O)[C@H]1CO [40a, N-Butyl-1,5-dideoxy-1,5-imino-D-glucitol, reference compound] | IC50 [1, 6]: > 2000 µM; yeast α-glucosidase inhibition (in words) [4]: weak or no α-glucosidase inhibition
11 | – | 33 µM and 33.1 µM | OC[C@H]1NC[C@H](O)[C@@H](O)[C@@H]1O [DNJ, 1-deoxynojirimycin, reference compound] | Ki (β-glucosidase): […]; Ki ([3]; Bacillus stearothermophilus α-glucosidase): 0.44 µM
12 | – | > 2000 µM | OCCN1C[C@@H](O)[C@@H](O)[C@H](O)[C@@H]1CO [28a, N-Hydroxyethyl-1,5-dideoxy-1,5-imino-L-gulitol] | IC50 [1, 6]: > 2000 µM
13 | – | – | OC[C@@H]1NC[C@@H](O)[C@@H](O)[C@@H]1O [nonsubstituted L-gulo-piperidine, 1-deoxy-L-gulo-nojirimycin] | % β-glucosidase inhibition (β-glucosidase): […]; % α-glucosidase inhibition [3]: 30%

Row | Compound | IC50 [1, 5] | IC50 [2] | also measured
14 | C#CCN1C[C@H](O)[C@@H](O)[C@H](O)[C@H]1CO [39a, N-Propynyl-1,5-dideoxy-1,5-imino-D-glucitol] | > 2000 µM | 636 ± 8.5 µM | yeast α-glucosidase inhibition (in words) [4]: weak or no α-glucosidase inhibition
15 | O[C@H]1[C@H](O)[C@H](O)CN(CCc2ccccc2)C[C@H]1O [29b, N-Phenethyl-1,6-dideoxy-1,6-imino-D-mannitol] | > 2000 µM | > 2000 µM | –
16 | C#CCN1C[C@H](O)[C@@H](O)[C@H](O)[C@@H](O)C1 [39b, N-Propynyl-1,6-dideoxy-1,6-imino-L-iditol] | > 2000 µM | 3440 ± 70.6 µM | yeast α-glucosidase inhibition (in words) [4]: weak or no α-glucosidase inhibition
17 | CCCCN1C[C@H](O)[C@@H](O)[C@H](O)[C@@H](O)C1 [40b, N-Butyl-1,6-dideoxy-1,6-imino-L-iditol] | > 2000 µM | 80 ± 4.9 µM | yeast α-glucosidase inhibition (in words) [4]: weak or no α-glucosidase inhibition; % inhibition, α-glucosidase (yeast α-glucosidase): 14%
